Assay results as given in patent US10005731B2, “Modulators of the retinoid-related orphan receptor gamma (ROR-gamma) for use in the treatment of autoimmune and inflammatory diseases” (Glaxo Group Limited, priority 2012, dated 2018).
Structures can show the parent of a compound that is named as a salt. Where two headings read alike, the source gives them in different places.

Columns and labels:
Mouse CD4+ cells = assay: Th17 cell differentiation assay (IL-17 ELISA); assay type: cell-based
Protocol: Mouse CD4+cells were purified using the CD4+ T Cell Isolation II Kit according to manufacturer's instructions (Miltenyi Biotec). 96 well plates were pre-coated with anti-mCD3 antibody. Un-coated wells were used as controls. CD4+ Cells were resuspended in RPMI 1640 complete medium and were added to the 96-well plates. Cytokine cocktail and the compound were then added to the wells. Antibodies and cytokines (all from R&D Systems) used in the assay were selected from the following: anti-mCD3; anti-mCD28; anti-mIFNγ; anti-mIL4; mIL-6; mIL-23; mIL-1β; hTGF-β1. The culture was incubated at 37° C. for 3 days and supernatants were collected for ELISA. The IL-17 ELISAs were performed according to manufacturer's instructions (R&D Systems). The results were analyzed using Prism software with non-linear regression to determine pIC50.

[1] = biological target: T1, Human RORγ Ligand Binding Domain (RORγ-LBD) (Homo sapiens, UniProt P51449); assay: Dual Fluorescence Energy Transfer (FRET) assay, RORγ-LBD / SRC1(2) co-activator peptide interaction; assay type: biochemical; conditions: mean of multiple test results if tested more than once; read-out: pIC50 in the dual FRET assay (converted)
T1 construct: made in house; host or cells: E. coli BL21(DE3), modified pET21a
T1 sequence (P51449 263-518): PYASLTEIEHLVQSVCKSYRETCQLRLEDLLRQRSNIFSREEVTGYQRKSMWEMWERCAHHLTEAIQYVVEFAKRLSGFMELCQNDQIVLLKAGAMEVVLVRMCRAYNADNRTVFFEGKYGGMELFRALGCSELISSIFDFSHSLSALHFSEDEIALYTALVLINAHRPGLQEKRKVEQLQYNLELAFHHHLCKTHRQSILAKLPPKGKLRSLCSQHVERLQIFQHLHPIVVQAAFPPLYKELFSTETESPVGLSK
Text: This assay is based on the knowledge that nuclear receptors interact with cofactors (transcription factors) in a ligand dependent manner. RORγ is a typical nuclear receptor in that it has an AF2 domain in the ligand binding domain (LBD) which interacts with co-activators.
The assay measures ligand-mediated interaction of the co-activator peptide with the purified bacterial-expressed RORγ ligand binding domain (RORγ-LBD) to indirectly assess ligand binding. RORγ has a basal level of interaction with the co-activator SRC1(2) in the absence of ligand, thus it is possible to find ligands that inhibit or enhance the RORγ/SRC1(2) interaction.
Human RORγ Ligand Binding Domain (RORγ-LBD) was expressed in E.coli strain BL21(DE3) as an amino-terminal polyhistidine tagged fusion protein. DNA encoding this recombinant protein was sub-cloned into a modified pET21a expression vector (Novagen).
Approximately 50 g E. coli cell pellet was resuspended in 300 mL of lysis buffer (30 mM imidazole pH 7.0 and 150 mM NaCl). Cells were lysed by sonication and cell debris was removed by centrifugation for 30 minutes at 20,000 g at 4° C. […] The clarified lysate was loaded onto a column (XK-26) packed with ProBond Nickel Chelating resin (Invitrogen), pre-equilibrated with 30 mM imidazole pH 7.0 and 150 mM NaCl. After washing to baseline absorbance with the equilibration buffer, the column was developed with a gradient from 30 to 500 mM imidazole pH 7.0. Column fractions containing the RORγ-LBD protein were pooled and concentrated to a volume of 5 mls. The concentrated protein was loaded onto a Superdex 200 column pre-equilibrated with 20 mM Tris-CI pH 7.2 and 200 mM NaCl. The fractions containing the desired RORγ-LBD protein were pooled together.
Purified RORγ-LBD was buffer exchanged by exhaustive dialysis [3 changes of at least 20 volumes (>8000x)] against PBS [100mM NaPhosphate, pH 8 and 150mM NaC1]. […] The modified protein was distributed into aliquots, frozen on dry ice and stored at −80° C. The biotinylated RORγ-LBD was subjected to mass spectrometric analysis to reveal the extent of modification by the biotinylation reagent.
An appropriate amount of Europium labeled Streptavidin was then added to the biotinylated SRC1(2) solution in a tube to give a final concentration of 10 nM. The tube was inverted gently and incubated for 15 minutes at room temperature. Twenty-fold excess biotin from the 10 mM stock solution was added and the tube was inverted gently and incubated for 10 minutes at room temperature.
Preparation of APC labeled RORγ-LBD: biotinylated RORγ-LBD solution was prepared by adding an appropriate amount of biotinylated RORγ-LBD from the stock solution to a buffer containing 10 mM of freshly added DTT from solid to give a final concentration of 40 nM. An appropriate amount of APC labeled Streptavidin was then added to the biotinylated RORγ-LBD solution in a tube to give a final concentration of 20 nM. The tube was inverted gently and incubated for 15 minutes at room temperature. Twenty-fold excess biotin from the 10 mM stock solution was then added and the tube was inverted gently and incubated for 10 minutes at room temperature.
The reaction mixtures were incubated for 5 minutes. […] The plates were incubated for lhr and then read on ViewLux in Lance mode for EU/APC.

[2] = 72 h, mean pIC50, IL-17 ELISA, 3 days culture, detection limit of the assay 5, read-out: pIC50 in the Th17 cell differentiation assay (converted)

Cc1c(CN2CCN(C(=O)C3CCCC3)[C@@H](C)C2)cc(Cl)cc1NC(=O)c1cccc(C#N)c1 [Example 193, (S)-N-(5-chloro-3-((4-(cyclopentanecarbonyl)-3-methylpiperazin-1-yl)methyl)-2-methylphenyl)-3-cyanobenzamide, trifluoroacetic acid salt] was tested, and the IC50 (Mouse CD4+ cells; [2]) was ~5.01 nM and the IC50 [1] was ~63.1 nM.
In the case of Cc1c(CN2CCN(C(=O)C3CCCC3)[C@@H](C)C2)cc(F)cc1NC(=O)c1cccc(C#N)c1 [Example 66, (S)-3-cyano-N-(3-((4-(cyclopentanecarbonyl)-3-methylpiperazin-1-yl)methyl)-5-fluoro-2-methylphenyl)benzamide], the IC50 (Mouse CD4+ cells; [2]) is reported as ~0.794 nM, the IC50 (Mouse CD4+ cells; table with percutaneous study, read-out: Th17 cell differentiation assay IC50) is reported as 0.4 ng/mL and the IC50 (Mouse CD4+ cells; table with percutaneous study, read-out: Th17 cell differentiation assay pIC50 (converted)) is reported as 0.794 nM. The IC50 [1] was ~39.8 nM.
